Results published in publication PMC12323621, “Exploring the antimicrobial activity of pantothenamides against uropathogenic Escherichia coli” (Microbiology Spectrum, 2025).
Like-named read-outs stand apart in the source and are kept apart here.

How the values were obtained:
UPEC strain CFT073 = test: Antimicrobial susceptibility assay, UPEC grown in pooled human urine; type: cell-based, Escherichia coli
From the text: Unless otherwise noted, all reagents were obtained from commercial sources. BAP, 1, and N5-Pan analogs were synthesized according to previously reported procedures ([31], [53]). Urine was self-collected from adult males and females (not menstruating) between 24 and 57 years old (recruitment was open to donors 18–65 years old), who had not used anti-infectives or cranberry products for at least 7 days prior to collection. The collection protocol was approved by the Johns Hopkins University Institutional Review Boards under IRB study NA_00085130. Informed, written consent was obtained from all participants prior to collection. Urine was collected from at least 7 participants over 14 days, stored at 4°C upon collection, and then pooled, filter-sterilized, and frozen at −20°C. Urine Batch A included five male and three female donors with an average age of 33 years (range: 24–57). Urine Batch B included four male and five female donors with an average age of 26 years (range: 24–43). Samples from two donors (donations made at least 30 days apart) were included in both Batch A and Batch B. Urine Batch C included four male and three female donors with an average age of 27 years (range: 24–36). Urine Batch D included four male and three female donors with an average age of 27 years (range: 25–35). Solid urine agar plates were prepared by supplementing cooled 1.5% (wt/vol) agar with filter-sterilized urine in a 4:1 ratio. Liquid MOPS-glycerol was prepared by adding 10 × 3-(N-morpholino)propanesulfonic acid (MOPS) Buffer (Teknova) to water to a final 1× concentration, 1.32 mM K2HPO4, and 0.4% (vol/vol) glycerol and then filter-sterilizing. Unless otherwise noted, all media were supplemented with freshly prepared 20 µM FeSO4. OD600 analyses were performed on Mettler-Toledo UV5Bio UV/Visible spectrophotometer (Columbus, Ohio, USA). For antimicrobial studies, uropathogenic E. coli strain CFT073 (ATCC: BAA-2503) was provided by Kevin Schwartz from the lab of Rodney Welch. All manipulation of UPEC was conducted in a certified biosafety level 2 (BSL-2) laboratory while using BSL-2-associated safety procedures. Antimicrobial data were collected on a Biotek Epoch 2 microplate reader or a Biotek Synergy Neo 2 microplate reader. For metabolic stability studies, losartan potassium (PHR1602), used as an internal standard, was bought from Millipore Sigma (Burlington, MA). Methanol (A456-4) and acetonitrile (A955-4) were purchased from Fisher Chemical (Pittsburgh, PA). Water (9831-03) was purchased from JT Baker (Philipsburg, NJ). Dimethyl sulfoxide (DMSO)(154938-500mL) was purchased from Sigma Aldrich (St. Louis, MO). Mouse plasma (WT) was purchased from Innovative Research (Novi, MI). Mouse liver microsomes (M1000) were purchased from XenoTech LLC (Kansas City, KS).
All antimicrobial susceptibility assays were conducted as previously described using an aseptic technique with some modification ([7]). Briefly, 3–5 isolated colonies of CFT073 on LB agar or pooled urine agar were inoculated into 3 mL of liquid MOPS-glycerol medium or pooled urine, respectively, and grown overnight with shaking at 37°C. Saturated cultures were diluted 1:50 in fresh medium and grown to an OD600 of 0.4. These exponential phase cultures were then diluted 1:1,000 into fresh medium to yield the experimental inoculum, which was mixed 1:1 with medium containing 1 or N5-Pan analog at twice the desired final concentration in 96-well plates. The final concentration of bacteria in each well was approximately 10^5 CFU/mL in a final volume of 200 µL. The concentration ranges of compounds evaluated in MOPS-glycerol were: 1 (0–312.5 μM), 2 (0–100 μM), 3 (0–500 μM), 4–5 (0–2,000 μM), 6–7 (0–100 μM), and 8–12 (0-2,000 μM). Analogs 1, 6, and 7 were evaluated over a range of 0–4,000 μM in four batches of pooled human urine. The OD600 was monitored for 24 h (MOPS-glycerol) or 16 h (pooled urine) at 37°C with periodic shaking. […]

[1] = Stability in mouse liver homogenate; type: in vitro ADME; settings: for remaining at 1 h, 10 µM: mouse, liver tissue homogenate (10% wt/vol), 10% wt/vol homogenate, 10 µM compound, 37°C; for stability in mouse liver homogenate: n = 3
Description: Stability studies were conducted in mouse liver microsomes, mouse liver tissue homogenate, and CD1 mouse plasma as previously described with minor modifications ([54][–][56]). Briefly, for Phase I mouse liver microsome stability, reactions were carried out with 200 mM potassium phosphate buffer, pH 7.4, with or without an NADPH-regenerating system (1.3 mM NADPH, 3.3 mM glucose 6-phosphate, 3.3 mM MgCl2, 0.4 U/mL glucose-6-phosphate dehydrogenase, and 50 µM sodium citrate). Reactions, in triplicate, were initiated by the addition of liver microsomes to the incubation mixture (compound final concentration was 1 µM; 0.2 mg/mL microsomes) and incubated at 37°C for the desired incubation time. For liver stability, the tissue homogenate was prepared by washing tissues with diluted 10-fold 0.1 M potassium phosphate buffer and homogenized using a probe sonicator over ice. To evaluate the stability of the drugs over time, each of the crude homogenates was aliquoted to 1 mL and then spiked with a final assay concentration of 10 µM of each drug, followed by incubation in an orbital shaker at 37°C for 1 h (in triplicate). For plasma stability, 1 mL of plasma was spiked with 10 µM of each drug, followed by incubation in an orbital shaker at 37°C for 1 h (in triplicate). Samples from each metabolism study were quenched with 3× volume of acetonitrile containing internal standard (losartan: 0.5 µM) at the desired incubation times. […] Samples were vortex-mixed for 30 s and centrifuged at 10,000 × g for 10 min at 4°C. Compound disappearance over time was monitored using a Dionex ultra-high-performance liquid chromatography system consisting of an analytical pump and an autosampler coupled with Q Exactive Focus orbitrap mass spectrometer (Thermo Fisher Scientific Inc., Waltham MA). […] The mobile phase used was composed of 0.1% formic acid in water and 0.1% formic acid in acetonitrile with gradient elution. The total run time for each analyte was 5 min.
The mass spectrometer was operated with a HESI ion source in positive ionization mode where compounds were identified in the full scan mode (from m/z 75.00–1125.00) and controlled by the Xcalibur software 4.0.27.13 (Thermo Scientific). Data were acquired using Xcalibur software. Drugs were identified in the full-scan mode (from m/z 75.00 to 1125.00) by comparing t = 0 samples with t = 30 or 60 min samples, and structures were proposed based on the accurate mass information. The percentage of compound remaining for pantothenamides 1, 6, and 7 was determined from the analyte/internal standard (IS) area ratios obtained at t = 30 or 60 min relative to the mean ratios obtained at t = 0 min and calculated using equation 1:
% Remaining=(Peak area of Analyte/Preak area of ISat t=30 or 60 min/MeanPeak area of Analyte/Peak area of ISat t=0 min)×100

[2] = Escherichia coli, UPEC CFT073, all urine batches A-D, read-out: MIC across four batches of pooled urine
[3] = Escherichia coli, UPEC CFT073, urine batch A, read-out: MIC in pooled human urine, urine batch A
[4] = Escherichia coli, UPEC CFT073, urine batch B, read-out: MIC in pooled human urine, urine batch B
[5] = Escherichia coli, UPEC CFT073, urine batch C, read-out: MIC in pooled human urine, urine batch C
[6] = Escherichia coli, UPEC CFT073, urine batch D, read-out: MIC in pooled human urine, urine batch D
[7] = UPEC CFT073, urine batch A, read-out: MIC in pooled human urine, urine batch A
[8] = UPEC CFT073, urine batch B, read-out: MIC in pooled human urine, urine batch B

| MIC (UPEC strain CFT073; [2]) [µM] | MIC (UPEC strain CFT073; [3]) [µM] | MIC (UPEC strain CFT073; [4]) [µM] | MIC (UPEC strain CFT073; [5]) [µM] | MIC (UPEC strain CFT073; [6]) [µM] | MIC (UPEC strain CFT073; [7]) [µM] | MIC (UPEC strain CFT073; [8]) [µM] | fold higher MIC in urine than in MOPS-glycerol (UPEC strain CFT073; urine MICs vs MIC in MOPS-glycerol) [fold] | remaining at 1 h, 10 µM [1] [%] | stability in mouse liver homogenate [1] | SMILES |
| --- | --- | --- | --- | --- | --- | --- | --- | --- | --- | --- |
| 250 to 1000 | 1000 | 250 | 500 | 500 | 1000 | 250 | > 40 | 96 | good stability | CCCCCNC(=O)CNC(=O)[C@H](O)C(C)(C)CO [compound 6, N5-α-pantothenamide] |
| 250 to 1000 | 1000 | 250 | 1000 | 1000 | 1000 | 250 | – | 17 | unstable | CCCCCNC(=O)CCNC(=O)[C@H](O)C(C)(C)CO [compound 1, N-pentylpantothenamide, reference compound] |
